# Results taken from paper PMC3625656 (Physical biology, 2012).
# Experiments:
# [1] = target: APP-C peptide of the affinity measurement (15 aa; human or squid sequence not told); assay: pull-down
# [2] = test system: squid giant axon; assay: Axonal transport of injected fluorescent bead cargo, confocal time-lapse; assay type: cell-based, North Atlantic Long-Finned Squid (Loligo pealleii)
Substance,Kd [1] [nM],Run length ([2]; calculated as v1/k1) [μm],"Detachment rate k1 ([2]; from average run time, Poisson distribution, run v1 > 0.1 μm s^−1, about 40 runs) [s⁻¹]"
kinesin-1 of rat brain extract (from UniProt Q2PQA9 1-963) (complex),4.7,–,–
GYENPTYKFFEQMQN [hAPP-C],–,11.5,0.0322
